Data: article PMC11904715, “Discovery of Novel Pyrrolidine-Based Chalcones as Dual Inhibitors of α-Amylase and α-Glucosidase: Synthesis, Molecular Docking, ADMET Profiles, and Pharmacological Screening” (ACS Omega, 2025)

Key:
α-glucosidase = α-glucosidase inhibitory activity, spectrophotometric p-nitrophenyl-α-D-glucopyranoside method; type: biochemical; conditions: for IC50: mean ± SEM of three parallel measurements, concentration range 50–100–200–400 μM, read-out: antidiabetic inhibition activity IC50 α-lucosidase
Method: Specifically, 50 μL of phosphate buffer (10 mM, pH 6.9), 25 μL of p-nitrophenyl-α-D-glucopyranoside in phosphate buffer (10 mM, pH 6.9), 10 μL of sample solution, and 25 μL of α-glucosidase (0.1 U/mL) in phosphate buffer (10 mM, pH 6.0) were combined in a 96-well microplate. After 20 min of incubation at 37 °C, 90 μL of Na2CO3 (100 mM) was added to each well to halt the enzymatic reaction. The absorbance was measured at 400 nm by using a 96-well microplate reader.
(§1) All biological activity data were taken in three parallel measurements for four different concentrations of each synthesis sample. The results of the biological activity analyses are presented as the IC50 values.

[1] = system: bronchial epithelial normal (BEAS-2B) cells; experiment: Cytotoxic activity, MTT cell viability assay, BEAS-2B; type: cell-based; conditions: at the determined IC50 values
Method: (§2) In this research, the nonsmall lung cancer (A549) and bronchial epithelial normal (BEAS-2B) cells were used for cytotoxicity experiments. All of the cells were cultured in Dulbecco’s Modified Eagle Medium (Gibco, USA) cell medium containing 10% fetal calf serum (FBS; Gibco, USA) and 1% penicillin/streptomycin (Gibco, USA) in an incubator at 37 °C and 5% CO2.[49],[50]
(§3) In a 96-well cell culture plate, cells were seeded at a density of 6 × 10^4 cells/mL and observed to be cultured for 24 h. The cells must have 70% confluence before chemical exposure. After 70% confluency incubation, the cells were treated with different concentrations of compounds for 24 h. All chemicals were dissolved in DMSO. […] The amount of DMSO contained in the chemical at the highest concentration was used as a negative control.
(§4) Cell viability was determined by 3-[4,5-dimethylthiazol-2-yl]-2,5-diphenyltetrazolium bromide (MTT) assay. This method is specifically used to evaluate live cells. The succinate dehydrogenase system of active mitochondria reduces the tetrazolium salt MTT to formazan.[51] For the MTT assay, MTT solution […] was added into the cells (200 μL/well) and incubated for 1 h at 37 °C. Absorbance was measured at 570 nm using an Epoch microplate spectrophotometer (BioTek Instruments, Winooska, VT).[52]

[2] = as above; type: cell-based; conditions: human, BEAS-2B normal bronchial epithelial cells
Method: as §2, §3, §4

[3] = system: nonsmall lung cancer (A549) cells; experiment: Cytotoxic activity, MTT cell viability assay, A549; type: cell-based; conditions: Homo sapiens, A549, 24 h
Method: as §2, §3, §4

α-amylase = α-amylase inhibitory activity, spectrophotometric starch/Lugol method; type: biochemical; conditions: mean ± SEM of three parallel measurements; concentration range 50–100–200–400 μM; read-out: antidiabetic inhibition activity IC50 α-amylase
Method: Briefly, 25 μL of the sample solution at various concentrations was mixed with 50 μL of an α-amylase solution (0.1 U/mL) in a phosphate buffer (20 mM, pH 6.9, prepared with 6 mM NaCl) in a 96-well microplate. This mixture was preincubated at 37 °C for 10 min. Following the preincubation, 50 μL of a starch solution (0.05%) was added, and the reaction mixture was incubated for another 10 min at 37 °C. The reaction was then terminated by adding 25 μL of HCl (0.1 M), followed by the addition of 100 μL of Lugol’s solution for monitoring.
as §1

alpha-amylase = target: alpha-amylase; set-up: method as in PMID 34064448, PMID 32525781, PMID 33272713, PMID 35832461, PMID 28495082; conditions: Figure 1 design strategy; cited from earlier work

SMILES | IC50 (α-glucosidase) [µM] | toxic effect on healthy BEAS-2B cells [1] | IC50 at 24 h [2] [µM] | IC50 [3] [µM] | IC50 (α-amylase) [µM] | α-glucosidase inhibitory effect compared with acarbose (α-glucosidase) | IC50 (alpha-amylase) [µM]
O=C(/C=C/c1ccccc1C(F)(F)F)c1ccc(N2CCCC2)cc1 [Compound 5, (E)-1-(4-(pyrrolidin-1-yl)phenyl)-3-(2-(trifluoromethyl)phenyl)prop-2-en-1-one] | 173 ± 3.45 | no toxic effects | 97.7 | 82.2 | 91.71 ± 0.28 |  | 
O=C(/C=C/c1cccc(F)c1)c1ccc(N2CCCC2)cc1 [Compound 3, (E)-3-(3-fluorophenyl)-1-(4-(pyrrolidin-1-yl)phenyl)prop-2-en-1-one] |  |  | > 100 | > 100 |  | better inhibitory effect | 
O=C(/C=C/c1ccc(C(F)(F)F)cc1F)c1ccc(N2CCCC2)cc1 [Compound 12, (E)-3-(2-fluoro-4-(trifluoromethyl)phenyl)-1-(4-(pyrrolidin-1-yl)phenyl)prop-2-en-1-one] | 81.8 ± 0.85 |  | > 100 | > 100 | 80.11 ± 0.49 | better inhibitory effect | 
O=C(/C=C/c1ccccc1)c1ccc(N2CCCC2)cc1 [Compound 1, (E)-3-Phenyl-1-(4-(pyrrolidin-1-yl)phenyl)prop-2-en-1-one] | 50.2 ± 2.32 |  | > 100 | > 100 |  | better inhibitory effect | 
O=C(/C=C/c1cccc(C(F)(F)F)c1)c1ccc(N2CCCC2)cc1 [Compound 6, (E)-1-(4-(pyrrolidin-1-yl)phenyl)-3-(3-(trifluoromethyl)phenyl)prop-2-en-1-one] | 54.1 ± 2.87 |  | > 100 | > 100 | 83.78 ± 0.38 | better inhibitory effect | 
O=C(/C=C/c1cc(C(F)(F)F)cc(C(F)(F)F)c1)c1ccc(N2CCCC2)cc1 [Compound 10, (E)-3-(3,5-bis(trifluoromethyl)phenyl)-1-(4-(pyrrolidin-1-yl)phenyl)prop-2-en-1-one] | 44.2 ± 2.42 |  | > 100 | > 100 | 39.68 ± 0.27 | better inhibitory effect | 
O=C(/C=C/c1ccccc1F)c1ccc(N2CCCC2)cc1 [Compound 2, (E)-3-(2-fluorophenyl)-1-(4-(pyrrolidin-1-yl)phenyl)prop-2-en-1-one] | 189 ± 1.94 |  | > 100 | > 100 | 51.96 ± 0.12 |  | 
O=C(/C=C/c1ccc(C(F)(F)F)cc1)c1ccc(N2CCCC2)cc1 [Compound 7, (E)-1-(4-(pyrrolidin-1-yl)phenyl)-3-(4-(trifluoromethyl)phenyl)prop-2-en-1-one] | 46.5 ± 2.16 |  | > 100 | > 100 | 38.2 ± 0.83 | better inhibitory effect | 
O=C(/C=C/c1cccc(OC(F)(F)F)c1)c1ccc(N2CCCC2)cc1 [Compound 8, (E)-1-(4-(pyrrolidin-1-yl)phenyl)-3-(3-(trifluoromethoxy)phenyl)prop-2-en-1-one] | 147.5 ± 0.9 | no toxic effects | > 100 | 60 |  |  | 
O=C(/C=C/c1cccc(C(F)(F)F)c1F)c1ccc(N2CCCC2)cc1 [Compound 11, (E)-3-(2-fluoro-3-(trifluoromethyl)phenyl)-1-(4-(pyrrolidin-1-yl)phenyl)prop-2-en-1-one] | 131 ± 3.02 |  | > 100 | > 100 |  |  | 
O=C(/C=C/c1ccccc1)c1ccccc1 [trans-chalcone] |  |  |  |  |  |  | 96.4
O=C(/C=C/c1ccc(OC(F)(F)F)cc1)c1ccc(N2CCCC2)cc1 [Compound 9, (E)-1-(4-(pyrrolidin-1-yl)phenyl)-3-(4-(trifluoromethoxy)phenyl)prop-2-en-1-one] | 61.3 ± 2.48 |  | > 100 | > 100 | 39.97 ± 0.26 | better inhibitory effect | 
O=C(/C=C/c1ccc(F)cc1)c1ccc(N2CCCC2)cc1 [Compound 4, (E)-3-(4-fluorophenyl)-1-(4-(pyrrolidin-1-yl)phenyl)prop-2-en-1-one] | 58.9 ± 3.26 |  | > 100 | > 100 | 30.63 ± 0.25 | better inhibitory effect | 
O=C(/C=C/c1ccc(F)c(C(F)(F)F)c1)c1ccc(N2CCCC2)cc1 [Compound 13, (E)-3-(4-fluoro-3-(trifluoromethyl)phenyl)-1-(4-(pyrrolidin-1-yl)phenyl)prop-2-en-1-one] | 261.5 ± 1.69 |  | > 100 | > 100 | 83.8 ± 0.01 |  | 
